Results taken from patent US11696917B2, “Agent enhancing antitumor effect using pyrazolo[3,4-d]pyrimidine compound” (TAIHO PHARMACEUTICAL CO., LTD., priority 2017, dated 2023).
Like-named read-outs stand apart in the source and are kept apart here.

Columns and labels:
[1] = system: EGFR-overexpressing highly activated human epithelioid cancer cell line A431 cells; experiment: Cytostatic activity against EGFR-expressing cell line (A431), CellTiter-Glo; type: cell-based; conditions: 3-day culture, read-out: A431 cell growth inhibitory activity IC50 value
Text: (§1) HER2-overexpressing human stomach cancer cell line NCI-N87 cells were suspended in RPMI1640 medium (manufactured by Life Technologies Corp.) containing 10% fetal bovine serum. Meanwhile, EGFR-overexpressing highly activated human epithelioid cancer cell line A431 cells were suspended in DMEM, high glucose medium (manufactured by Life Technologies Corp.) containing 10% fetal bovine serum. Subsequently, each cell suspension was inoculated to each well of a 384-well flat-bottom microplate and cultured at 37° C. for 1 day in an incubator containing 5% carbon dioxide. The synthesis example compound was dissolved in DMSO, and the test compound was diluted into a concentration of 500 times the final concentration using DMSO. The solution of the test compound in DMSO was diluted with the medium used in the suspension of each cell line, and this solution was added at a final concentration of DMSO of 0.2% to each well of the cell culture plate, followed by further culture at 37° C. for 3 days in an incubator containing 5% carbon dioxide.
(§2) Rate of growth inhibition (%)=(C−T)/(C)×100 T: Luminescence intensity of a well supplemented with the test compound C: Luminescence intensity of a well not supplemented with the test compound

[2] = molecular target: purified recombinant human HER2 protein (Homo sapiens (Human), UniProt P04626); experiment: Measurement of inhibitory effect on HER2-phosphorylating activity (in vitro); type: biochemical; conditions: ATP 6 μM, 25° C., 40 minutes
Text: The purified recombinant human HER2 protein used in the test was purchased from Carna Biosciences, Inc.
For the inhibitory activity measurement of each compound, the synthesis example compound was first serially diluted with dimethyl sulfoxide (DMSO).

[3] = system: HER2-overexpressing human stomach cancer cell line NCI-N87 cells; experiment: Cytostatic activity against HER2-expressing cell line (NCI-N87), CellTiter-Glo; type: cell-based; conditions: 3-day culture, read-out: NCI-N87 cell growth inhibitory activity IC50 value
Text: as §1

[4] = system: HER2-overexpressing human breast cancer cell line SK-BR-3 cells; experiment: Cytostatic activity against HER2-expressing cell line (SK-BR-3), CellTiter-Glo; type: cell-based; conditions: 3-day culture; read-out: SK-BR-3 cell growth inhibitory activity IC50 value
Description: as §2
as §1, with “breast” for “stomach”, “SK-BR-3” for “NCI-N87”, “McCoy's 5a” for “RPMI1640”, “The” for “Meanwhile, EGFR-overexpressing highly activated human epithelioid cancer cell line A431 cells were suspended in DMEM, high glucose medium (manufactured by Life Technologies Corp.) containing 10% fetal bovine serum. Subsequently, each”, “into” for “into a concentration of”, “times as high concentration as” for “times”

Compound	IC50 [1] [nM]	IC50 [2] [nM]	also measured
C=CC(=O)N1CCC[C@@H](n2nc(C(=O)Nc3ccc(CC(=O)N(C)C)c(Cl)c3)c3c(N)ncnc32)C1 [compound 8]	955	9.2	IC50 [3]: 8 nM
C=CC(=O)N1CCC[C@@H](n2nc(C(=O)Nc3cc(Cl)c(CC(=O)N(C)C)cc3OC)c3c(N)ncnc32)C1 [compound 9]	2450	10	IC50 [3]: 13 nM
C=CC(=O)N1CCC[C@@H](n2nc(C(=O)Nc3ccc(CC(=O)N(C)C)c(F)c3C)c3c(N)ncnc32)C1 [compound 12]	340	7.5	IC50 [3]: 3 nM
C=CC(=O)N1CCC[C@@H](n2nc(C(=O)Nc3cc(F)c(CC(=O)N(C)C)cc3Cl)c3c(N)ncnc32)C1 [compound 18]	1060	4.4	IC50 [3]: 12 nM
C=CC(=O)N1CCC[C@@H](n2nc(C(=O)Nc3cc(Cl)c(CC(=O)N(C)C)cc3Cl)c3c(N)ncnc32)C1 [compound 20]		13	
C=CC(=O)N1CCCC(n2nc(Nc3ccc(C(=O)N(C)C)cc3)c3c(N)ncnc32)C1 (stereo not drawn) [compound 21]		26	
C=CC(=O)N1CCC[C@@H](n2nc(C(=O)Nc3ccc(CC(=O)N(C)C)cc3C3CC3)c3c(N)ncnc32)C1 [compound 22]		48	
C=CC(=O)N1CCC[C@@H](n2nc(C(=O)Nc3ccc(CC(=O)N(C)C)cc3C#N)c3c(N)ncnc32)C1 [compound 23]		20	
C=CC(=O)N1CCC[C@@H](n2nc(C(=O)Nc3cc(C#N)c(CC(=O)N(C)C)cc3C)c3c(N)ncnc32)C1 [compound 24]		38	
C=CC(=O)N1CCC[C@@H](n2nc(C(=O)Nc3ccc(CC(=O)N(C)C)cc3)c3c(N)ncnc32)C1 [compound 28]		46	
C=CC(=O)N1CCC[C@@H](n2nc(C(=O)Nc3ccc(OC(=O)N(C)C)c4ccccc34)c3c(N)ncnc32)C1 [compound 33]	263		
C=CC(=O)N1CCC[C@@H](n2nc(C(=O)Nc3ccc(OC(=O)N(C)C)c(F)c3)c3c(N)ncnc32)C1 [compound 34]	2210		IC50 [3]: 32 nM
C=CC(=O)N1CCC[C@@H](n2nc(C(=O)Nc3ccc(OC(=O)N(C)C)c(F)c3F)c3c(N)ncnc32)C1 [compound 35]	2610	16	IC50 [3]: 8 nM
C=CC(=O)N1CCC[C@@H](n2nc(C(=O)Nc3ccc(OC(=O)N(C)C)cc3OC)c3c(N)ncnc32)C1 [compound 36]			IC50 [4]: 12 nM
C=CC(=O)N1CCC[C@@H](n2nc(C(=O)Nc3ccc(CC(=O)N(C)C)c(OC)c3)c3c(N)ncnc32)C1 [compound 40]		23	
C=CC(=O)N1CCC[C@@H](n2nc(C(=O)Nc3cccc4c(CC(=O)N(C)C)ccnc34)c3c(N)ncnc32)C1 [compound 41]		18	
C=CC(=O)N1CCC[C@@H](n2nc(C(=O)Nc3ccc(CC(=O)N(C)C)c(F)c3)c3c(N)ncnc32)C1 [compound 42]		18	
C=CC(=O)N1CCC[C@@H](n2nc(C(=O)Nc3ccc(CC(=O)N(C)C)cc3N(C)C)c3c(N)ncnc32)C1 [compound 47]		52	
C=CC(=O)N1CCC[C@@H](n2nc(C(=O)Nc3ccc(CC(=O)N(C)C)cc3C=C)c3c(N)ncnc32)C1 [compound 48]	314	8.5	IC50 [3]: 4 nM
C=CC(=O)N1CCC[C@@H](n2nc(C(=O)Nc3ccc(CC(=O)N(C)C)cc3CC)c3c(N)ncnc32)C1 [compound 49]		20	
C=CC(=O)N1CCC[C@@H](n2nc(C(=O)Nc3ccc(CC(=O)N(C)C)c(F)c3Cl)c3c(N)ncnc32)C1 [compound 50]	277	2.9	IC50 [3]: 4 nM
C=CC(=O)N1CCC[C@@H](n2nc(C(=O)Nc3ccc(CC(=O)N(C)C)cc3-c3ccco3)c3c(N)ncnc32)C1 [compound 51]		17	

Compound	IC50 [1] [nM]	IC50 [2] [nM]	also measured
C=CC(=O)N1CCC[C@@H](n2nc(C(=O)Nc3ccc(CC(=O)N(C)C)cc3-c3ccoc3)c3c(N)ncnc32)C1 [compound 52]		13	
C=CC(=O)N1CCC[C@@H](n2nc(C(=O)Nc3ccc(CC(=O)N(C)C)c4c3OCO4)c3c(N)ncnc32)C1 [compound 53]		14	IC50 [4]: 18 nM
C=CC(=O)N1CC[C@@H](n2nc(C(=O)Nc3ccc(CC(=O)N(C)C)cc3Cl)c3c(N)ncnc32)C1 [compound 54]		31	
C=CC(=O)N1CC[C@@H](n2nc(C(=O)Nc3ccc(CC(=O)N(C)C)c(Cl)c3OC)c3c(N)ncnc32)C1 [compound 55]		49	
C=CC(=O)N1CC[C@@H](n2nc(C(=O)Nc3ccc(CC(=O)N(C)C)c(F)c3C)c3c(N)ncnc32)C1 [compound 56]	2610	22	IC50 [3]: 31 nM
C=CC(=O)N1CC[C@@H](n2nc(C(=O)Nc3ccc(CC(=O)N(C)C)c(F)c3OC)c3c(N)ncnc32)C1 [compound 57]	3390	31	IC50 [3]: 44 nM
C=CC(=O)N1CC[C@@H](n2nc(C(=O)Nc3ccc(OC(=O)N(C)C)c4ccccc34)c3c(N)ncnc32)C1 [compound 58]	681		
C=CC(=O)N1CC[C@@H](n2nc(C(=O)Nc3ccc(CC(=O)N(C)C)c(C)c3C)c3c(N)ncnc32)C1 [compound 59]		45	
C=CC(=O)N1CC[C@@H](n2nc(C(=O)Nc3ccc(CC(=O)N(C)C)cc3C=C)c3c(N)ncnc32)C1 [compound 60]	5260	20	
C=CC(=O)N1CC[C@@H](n2nc(C(=O)Nc3ccc(CC(=O)N(C)C)c4ccccc34)c3c(N)ncnc32)C1 [compound 61]	1100	13	
C=CC(=O)N1CC[C@@H](n2nc(C(=O)Nc3ccc(CC(=O)N(C)C)cc3Br)c3c(N)ncnc32)C1 [compound 62]		59	
C=CC(=O)N1CC[C@@H](n2nc(C(=O)Nc3ccc(OC(=O)N(C)C)cc3C)c3c(N)ncnc32)C1 [compound 63]	1670		IC50 [3]: 11 nM
C=CC(=O)N1CC[C@@H](n2nc(C(=O)Nc3ccc(CC(=O)N(C)C)c(F)c3Cl)c3c(N)ncnc32)C1 [compound 65]		20	
C=CC(=O)N1CC[C@@H](n2nc(C(=O)Nc3cc(Cl)c(CC(=O)N(C)C)cc3C)c3c(N)ncnc32)C1 [compound 67]		72	
C=CC(=O)N1CCC[C@@H](n2nc(C(=O)Nc3ccc(CC(=O)N4CCCC4)cc3C)c3c(N)ncnc32)C1 [compound 71, (R)-1-(1-acryloylpiperidin-3-yl)-4-amino-N-(2-methyl-4-(2-oxo-2-(pyrrolidin-1-yl)ethyl)phenyl)-1H-pyrazolo[3,4-d]pyrimidine-3-carboxamide]			IC50 ([1]; Homo sapiens, A-431, 72 h): 2120 nM; IC50 ([3]; Homo sapiens, NCI-N87, 72 h): 26 nM
C=CC(=O)N1CCC[C@@H](n2nc(C(=O)Nc3ccc(NC(=O)N(C)C)cc3C)c3c(N)ncnc32)C1 [compound 74, (R)-1-(1-acryloylpiperidin-3-yl)-4-amino-N-(4-(3,3-dimethylureido)-2-methylphenyl)-1H-pyrazolo[3,4-d]pyrimidine-3-carboxamide]			IC50 ([1]; Homo sapiens, A-431, 72 h): 8080 nM; IC50 ([3]; Homo sapiens, NCI-N87, 72 h): 18 nM
C=CC(=O)N1C[C@H](n2nc(C(=O)Nc3ccc(CC(=O)N(C)C)cc3Cl)c3c(N)ncnc32)C[C@@H]1C [compound 78]	5450		
C=CC(=O)N1C[C@H](n2nc(C(=O)Nc3ccc(CC(=O)N(C)C)c(C)c3C)c3c(N)ncnc32)C[C@@H]1C [compound 79]	6940	17	
(R)-4-(1-(1-acryloylpyrimidin-3-yl)-4-amino-1H-pyrazolo[3,4-d]pyrimidine-3-carboxamido)-3-methylphenyl methyl(phenyl) carbamate [compound 68]		7.7	
(R)-4-(1-(1-acryloylpyrimidin-3-yl)-4-amino-1H-pyrazolo[3,4-d]pyrimidine-3-carboxamido)-3-methylphenyl piperidine-1-carboxylate [compound 70]		10	
(R)-4-(1-(1-acryloylpyrimidin-3-yl)-4-amino-1H-pyrazolo[3,4-d]pyrimidine-3-carboxamido)-3-methylphenyl pyrrolidine-1-carboxylate [compound 69]		9.2	
